# From patent publication US20260355137A1, “NOVEL OPHTHALMIC FORMULATION” (FERTIS INDIA PVT LTD, priority 2022, published 2026)
# Entries after “also recorded” stand apart in the source; their conditions may differ.
# Columns and labels:
# Assay type in all cases: in vivo, New Zealand rabbit
# [1] = system: intraocular pressure, glaucoma-induced left eye; assay: Intraocular pressure, tonometer (Table 17); details: for Intraocular pressure, Mean, Left eye: Left (induced) eye; for Intraocular pressure, Mean, Left eye / Intraocular pressure, Mean, Right eye: male, 6 animals/group; for intraocular pressure following treatment / mean intraocular pressure initially measured: induced left eye; for intraocular pressure following treatment: 28-day treatment regimen, 0.5%; for mean intraocular pressure initially measured: six animals, within three days
# Experimental: (§1) Cataract was induced by injecting 0.5% Methyl Cellulose, which is replaced by aqueous humor in the rabbit eye (i.e., 0.2 mL of Aqueous humor was withdrawn and the same 0.2 mL of 0.5% Methyl cellulose was injected as a replacement). Cataract was observed within 3-4 days of 0.5% Methyl cellulose replacement. Cataract induction was performed to left eye and right eye was served as a control.
# (§2) Rabbits were observed by ophthalmoscope and slit lamp once in three days for cataract confirmation. Intraocular pressure was measured with a tonometer once in three days for the confirmation of glaucoma.
# (§3) Intra-ocular pressures were measured in animals in each group once in three days using a Tonometer. The readings were documented for each eye separately.
# [2] = system: cataract induced left eye: lens and cornea; assay: Microscopic examination (histopathology) of lens and cornea (Table 16); details: for cataract efficacy, histopathology (in words): Table 16
# Experimental: (§4) An illustrative ophthalmic formulation for treatment of eye disease is set forth below: The formulations provided herein below are tested in cataract induced New Zealand rabbits, and the results are discussed herein below.
# as §1
# (§5) All surviving animals were euthanized on Day 29 by overdose of Thiopental Sodium. Before scheduled euthanasia, the animals were fasted overnight (water allowed) and terminal body weights were recorded. Animals were subjected to detailed macroscopic observation during necropsy. Both right (untreated/uninduced) and left (treated/induced) eyes were collected and cornea and lens were separated, preserved in Davidson fluid. Cornea and lens selected for histopathological evaluation were processed, embedded and sections were cut at 3-5 μm thickness, Sections were placed on grease-free slides and stained with Hematoxylin and Eosin. A 5-step grading system of minimum, mild, moderate, marked and severe will be used to rank microscopic findings for comparison among groups. Data was compiled based on incidences and severity of changes.
# [3] = system: cataract and intraocular pressure/glaucoma in induced rabbit eye; assay: Overall efficacy in cataract reduction and reducing intraocular pressure; details: third study; cataract reduction and reducing intraocular pressure, highest to lowest
# Experimental: as §4
# The following preclinical studies were conducted in rabbit model to test the efficacy of various active ingredients.
# as §1, §2
# [4] = system: cataract induced left eye; assay: Macroscopic examination, cataract induced left eye (Tables 14-15); details: for cataract efficacy, macroscopic (in words): Table 15; for No Abnormality Detected, incidence: left eye (cataract induced), macroscopic
# Experimental: as §4, §1, §2
# [5] = system: intraocular pressure, induced left eye; assay: Intraocular pressure, tonometer (Table 13); set-up: unit not given beside the values; details: left eye induced/treated
# Experimental: as §1, §2, §3
# [6] = system: cataract induced left eye: lens; assay: Microscopic observations (histopathology) of lens (Table 12); details: left eye (cataract induced)
# Experimental: as §4, §1, §5
# [7] = system: cataract induced left eye; assay: Macroscopic examination, cataract induced left eye (cinnamic acid derivatives, Tables 10-11); details: left eye (cataract induced), macroscopic; for No Abnormality Detected, incidence: animals affected/6
# Experimental: as §4, §1, §2
# [8] = Day 28, ↓↓ = Significantly low at P ≤ 0.01 compared to respective control
structure (smiles),measurement,setting,value
"O=C(O[C@@H]1Cc2c(O)cc(O)cc2O[C@@H]1c1cc(O)c(O)c(O)c1)c1cc(O)c(O)c(O)c1 [Epigallocatechin Gallate, (2R,3R)-2-(3,4,5-trihydroxyphenyl)-3,4-dihydro-1(2H)-benzopyran-3,5,7-triol 3-(3,4,5-trihydroxy benzoate)]","Intraocular pressure, Mean, Left eye",[1]; Day 3,29.72 mmHg
same,"Intraocular pressure, Mean, Left eye",[1]; Day 6,33.06 mmHg
same,"Intraocular pressure, Mean, Left eye",[1]; Day 9,26.56 mmHg
same,"Intraocular pressure, Mean, Left eye",[1]; Day 12,32.50 mmHg
same,"Intraocular pressure, Mean, Left eye",[1]; Day 15,26.39 mmHg
same,"Intraocular pressure, Mean, Left eye",[1]; Day 18,28.94 mmHg
same,"Intraocular pressure, Mean, Left eye",[1]; Day 21,27.11 mmHg
same,"Intraocular pressure, Mean, Left eye",[1]; Day 25,25.56 mmHg
same,"Intraocular pressure, Mean, Left eye",[1]; [8],20.00↓↓ mmHg
same,"Intraocular pressure, Mean, Right eye",[1]; Day 3,18.11 mmHg
same,"Intraocular pressure, Mean, Right eye",[1]; Day 6,16.94 mmHg
same,"Intraocular pressure, Mean, Right eye",[1]; Day 9,16.78 mmHg
same,"Intraocular pressure, Mean, Right eye",[1]; Day 12,17.00 mmHg
same,"Intraocular pressure, Mean, Right eye",[1]; Day 15,12.56 mmHg
same,"Intraocular pressure, Mean, Right eye",[1]; Day 18,16.61 mmHg
same,"Intraocular pressure, Mean, Right eye",[1]; Day 21,16.06 mmHg
same,"Intraocular pressure, Mean, Right eye",[1]; Day 25,18.17 mmHg
same,"Intraocular pressure, Mean, Right eye",[1]; Day 28,16.11 mmHg
same,intraocular pressure following treatment,[1],20.00 mmHg
same,mean intraocular pressure initially measured,[1],29.72 mmHg
same,"cataract efficacy, histopathology (in words)",[2],"fully restored, or regenerated in all 6 out of 6 animals, transitioning from severe degeneration to a milder state; also recorded: Only one animal exhibited mild corneal inflammation"
same,"Cornea, Inflammation: Mild, incidence",[2]; left eye induced,1/6
same,"Lens, Liquefaction: Mild, incidence",[2]; left eye induced,6/6
same,overall efficacy / order of efficacy (in words),[3],outstanding efficacy in reducing cataracts and also demonstrated a significant capability to address glaucoma; also recorded: Caffeic Acid G3>Epigallocatechin Gallate G4>Encapsulated Feruloyl Tyramine G5>Ferulic Acid G6>Rosmarinic Acid+Caffeic Acid G2
same,"cataract efficacy, macroscopic (in words)",[4],"complete recovery in all 6 animals, with no observable cataracts"
same,"No Abnormality Detected, incidence",[4],6/6
COc1cc(/C=C/C(=O)O)ccc1O [Ferulic acid],"Intraocular pressure, Mean, Left eye",[1]; Day 3,30.39 mmHg
same,"Intraocular pressure, Mean, Left eye",[1]; Day 6,28.39 mmHg
same,"Intraocular pressure, Mean, Left eye",[1]; Day 9,28.28 mmHg
same,"Intraocular pressure, Mean, Left eye",[1]; Day 12,25.33 mmHg
same,"Intraocular pressure, Mean, Left eye",[1]; Day 15,26.00 mmHg
same,"Intraocular pressure, Mean, Left eye",[1]; Day 18,26.56 mmHg
same,"Intraocular pressure, Mean, Left eye",[1]; Day 21,23.22 mmHg
same,"Intraocular pressure, Mean, Left eye",[1]; Day 25,21.72 mmHg
same,"Intraocular pressure, Mean, Left eye",[1]; [8],23.67↓↓ mmHg
same,"Intraocular pressure, Mean, Right eye",[1]; Day 3,17.28 mmHg
same,"Intraocular pressure, Mean, Right eye",[1]; Day 6,16.89 mmHg
same,"Intraocular pressure, Mean, Right eye",[1]; Day 9,16.89 mmHg
same,"Intraocular pressure, Mean, Right eye",[1]; Day 12,17.56 mmHg
same,"Intraocular pressure, Mean, Right eye",[1]; Day 15,14.94 mmHg
same,"Intraocular pressure, Mean, Right eye",[1]; Day 18,14.94 mmHg
same,"Intraocular pressure, Mean, Right eye",[1]; Day 21,17.06 mmHg
same,"Intraocular pressure, Mean, Right eye",[1]; Day 25,17.61 mmHg
same,"Intraocular pressure, Mean, Right eye",[1]; Day 28,17.28 mmHg
same,intraocular pressure following treatment,[1],23.67 mmHg
same,mean intraocular pressure initially measured,[1],30.39 mmHg
same,"cataract efficacy, histopathology (in words)",[2],minimal to moderate lenticular degeneration
same,"Lens, Liquefaction: Mild, incidence",[2]; left eye induced,4/6
same,"Lens, Liquefaction: Minimal, incidence",[2]; left eye induced,1/6
same,"Lens, Liquefaction: Moderate, incidence",[2]; left eye induced,1/6
same,overall efficacy / order of efficacy (in words),[3],Caffeic Acid G3>Epigallocatechin Gallate G4>Encapsulated Feruloyl Tyramine G5>Ferulic Acid G6>Rosmarinic Acid+Caffeic Acid G2
same,"cataract efficacy, macroscopic (in words)",[4],complete recovery from cataracts in all 6 animals
same,"No Abnormality Detected, incidence",[4],6/6
"O=C(/C=C/c1ccc(O)c(O)c1)NCCc1ccccc1 [Caffeic Acid Phenylethyl Amide, caffeic acid phenylethyl amide]","Intraocular Pressure, mean",[5]; Day 3,86.65
same,"Intraocular Pressure, mean",[5]; Day 6,79.88
same,"Intraocular Pressure, mean",[5]; Day 9,78.77
same,"Intraocular Pressure, mean",[5]; Day 12,72.72
same,"Intraocular Pressure, mean",[5]; Day 15,50.78
same,"Intraocular Pressure, mean",[5]; Day 18,49.95
same,"Intraocular Pressure, mean",[5]; Day 21,45.67
same,"Intraocular Pressure, mean",[5]; Day 24,49.77
same,"Intraocular Pressure, mean",[5]; Day 27,36.27
same,"Intraocular Pressure, mean",[5]; Day 30,25.85
same,"Intraocular Pressure, mean",[5]; Day 33,36.68↓↓
same,"Within Normal Histological Limits, incidence",[6],0/6
same,"Epithelial proliferation, incidence",[6]; lens,2/6
same,"Epithelial proliferation: Absent, incidence",[6]; lens,4/6
same,"Lenticular Degeneration, incidence",[6]; lens,5/6
same,"Liquefaction, incidence",[6]; lens,5/6
same,"Liquefaction: Absent, incidence",[6]; lens,1/6
same,"Epithelial proliferation: Mild, incidence","[6]; lens, number of animals",2
same,"Liquefaction: Mild, incidence","[6]; lens, number of animals",2
same,"Liquefaction: Minimal, incidence","[6]; lens, number of animals",3
same,"Opacity, cornea and red discoloured, with diffuse opacity: Moderate, incidence",[7],1/6
same,"Opacity, cornea, diffuse: Mild, incidence",[7],2/6
same,"Opacity, cornea, diffuse: Minimal, incidence",[7],3/6
same,"No Abnormality Detected, incidence",[7],0/6
"O=C(/C=C/c1ccc(O)c(O)c1)OCCc1ccccc1 [Caffeic Acid Phenyl ethyl Ester, caffeic acid phenylethyl ester]","Intraocular Pressure, mean",[5]; Day 3,88.07
same,"Intraocular Pressure, mean",[5]; Day 6,84.95
same,"Intraocular Pressure, mean",[5]; Day 9,84.67
same,"Intraocular Pressure, mean",[5]; Day 12,55.95
same,"Intraocular Pressure, mean",[5]; Day 15,42.80
same,"Intraocular Pressure, mean",[5]; Day 18,42.18
same,"Intraocular Pressure, mean",[5]; Day 21,40.93
same,"Intraocular Pressure, mean",[5]; Day 24,39.67
same,"Intraocular Pressure, mean",[5]; Day 27,36.27
same,"Intraocular Pressure, mean",[5]; Day 30,39.42
same,"Intraocular Pressure, mean",[5]; Day 33,41.85↓↓
same,"Within Normal Histological Limits, incidence",[6],0/6
same,"Epithelial proliferation, incidence",[6]; lens,6/6
same,"Lenticular Degeneration, incidence",[6]; lens,6/6
same,"Liquefaction, incidence",[6]; lens,6/6
same,"Epithelial proliferation: Marked, incidence","[6]; lens, number of animals",1
same,"Epithelial proliferation: Mild, incidence","[6]; lens, number of animals",3
same,"Epithelial proliferation: Minimal, incidence","[6]; lens, number of animals",2
same,"Liquefaction: Mild, incidence","[6]; lens, number of animals",2
same,"Liquefaction: Moderate, incidence","[6]; lens, number of animals",4
same,"Opacity, cornea and red discoloured, with diffuse opacity: Moderate, incidence",[7],4/6
same,"Opacity, cornea, diffuse: Minimal, incidence",[7],1/6
same,"Opacity, cornea, diffuse: Moderate, incidence",[7],1/6
same,"No Abnormality Detected, incidence",[7],0/6
